Reference: patent US8741940B2, “Microbicidal composition” (Rohm and Haas Company, priority 2005, dated 2014)
Counter-ions that a name gives are not always drawn. Like-named read-outs stand apart in the source and are kept apart here.

Tests used:
Assay type in all cases: cell-based
[1] = system: Escherichia coli (E. coli—ATCC #8739); assay: Synergy test, microtiter plate high resolution MIC assay, bacterium in M9GY medium; parameters: key to SI (synergy index): SI = Qa/QA + Qb/QB; >1 antagonism, lower SI = greater synergy; Qa (First Component A) / Qb (Second Component B): unit: ppm; settings: for MIC: Escherichia coli
Method: (§1) When the sum of Qa/QA and Qb/QB is greater than one, antagonism is indicated. […] The lower the SI, the greater the synergy shown by that particular mixture. The minimum inhibitory concentration (MIC) of a microbicide is the lowest concentration tested under a specific set of conditions that prevents the growth of added microorganisms.
(§2) Synergy tests were conducted using standard microtiter plate assays with media designed for optimal growth of the test microorganism. Minimal salt medium supplemented with 0.2% glucose and 0.1% yeast extract (M9GY medium) was used for testing bacteria; Potato Dextrose Broth (PDB medium) was used for testing yeast and mold. In this method, a wide range of combinations of microbicides and other personal care raw materials was tested by conducting high resolution MIC assays in the presence of various concentrations of BBIT or MBIT. High resolution MICs were determined by adding varying amounts of microbicide to one column of a microtitre plate and doing subsequent […] dilutions using an automated liquid handling system to obtain a series of endpoints ranging from 2 ppm to 10,000 ppm active ingredient.
(§3) The bacteria were used at a concentration of about 5 ×10^6 bacteria per mL and the yeast and mold at 5×10^5 fungi per mL. These microorganisms are representative of natural contaminants in many consumer and industrial applications. […] (yeast and mold) or 30° C. (bacteria).
(§4) In each test, First Component (A) was BBIT and the Second Component (B) was the other commercial microbicide.
(§5) In each test, First Component (A) was MBIT and the Second Component (B) was the other commercial microbicide.

[2] = system: Candida albicans (C. albicans—ATCC 10231); assay: Synergy test, microtiter plate high resolution MIC assay, yeast in PDB medium; parameters: key to SI (synergy index): SI = Qa/QA + Qb/QB; >1 antagonism, lower SI = greater synergy; Qb (Second Component B) / Qa (First Component A): unit: ppm; settings: for MIC: Candida albicans
Method: as §1, §2, §3, §4, §5

[3] = system: Aspergillus niger (A. niger—ATCC 16404); assay: Synergy test, microtiter plate high resolution MIC assay, mold in PDB medium; parameters: key to SI (synergy index): SI = Qa/QA + Qb/QB; >1 antagonism, lower SI = greater synergy; Qb (Second Component B) / Qa (First Component A): unit: ppm; settings: for MIC: Aspergillus niger
Method: as §1, §2, §3, §4, §5

[4] = C. albicans 10231, PDB, 24 hours
[5] = C. albicans 10231, PDB, 24 hours, alone where Qa = 0, otherwise in the mixture
[6] = A. niger 16404, PDB, 3 days, alone where Qa = 0, otherwise in the mixture
[7] = A=MBIT, B=2-bromo-2-nitro-propane-1,3-diol (BNPD), E. coli 8739 - M9GY, 24 hours
[8] = A=MBIT, B=2-bromo-2-nitro-propane-1,3-diol (BNPD), C. albicans 10231 - PDB, 24 hours
[9] = A=MBIT, B=2-bromo-2-nitro-propane-1,3-diol (BNPD), A. niger 16404 - PDB, 4 days
[10] = A=MBIT, B=Benzisothiazolinone (BIT), E. coli 8739 - M9GY, 24 hours
[11] = A=MBIT, B=Benzisothiazolinone (BIT), C. albicans 10231 - PDB, 48 hours
[12] = A=MBIT, B=Benzisothiazolinone (BIT), A. niger 16404 - PDB, 7 days
[13] = A=MBIT, B=DMDM Hydantoin (DMDMH), E. coli 8739 - M9GY, 24 hours
[14] = A=MBIT, B=DMDM Hydantoin (DMDMH), C. albicans 10231 - PDB, 24 hours
[15] = A=MBIT, B=DMDM Hydantoin (DMDMH), A. niger 16404 - PDB, 3 days
[16] = E. coli 8739, M9GY, 48 hours, alone where Qa = 0, otherwise in the mixture

Hexylene glycol
SI (synergy index) ([1]; E. coli 8739, M9GY, 24 hours): 1.00
Qb (concentration of second component producing the end point, MIC) ([1]; E. coli 8739, M9GY, 24 hours, alone where Qa = 0, otherwise in the mixture): 20000 ppm
SI ([1]; E. coli 8739 - M9GY, 24 hours, BBIT + hexylene glycol): 1.00
Qb (Second Component B = Hexylene glycol) ([1]; E. coli 8739 - M9GY, 24 hours, hexylene glycol alone (Qa 0) or in mixture with BBIT): 20000
SI (synergy index) [2, 4]: 1.00
Qb (concentration of second component producing the end point, MIC) [2, 5]: 20000 ppm
SI ([2]; C. albicans 10231 - PDB, 24 hours, BBIT + hexylene glycol): 1.00
Qb (Second Component B = Hexylene glycol) ([2]; C. albicans 10231 - PDB, 24 hours, hexylene glycol alone (Qa 0) or in mixture with BBIT): 20000
SI (synergy index) ([3]; A. niger 16404, PDB, 3 days): 1.00
Qb (concentration of second component producing the end point, MIC) [3, 6]: 20000 ppm
SI ([3]; A. niger 16404 - PDB, 3 days, BBIT + hexylene glycol): 1.00
Qb (Second Component B = Hexylene glycol) ([3]; A. niger 16404 - PDB, 3 days, hexylene glycol alone (Qa 0) or in mixture with BBIT): 20000

ClC=CC[N+]12CN3CN(CN(C3)C1)C2.[Cl-] [Quaternium-15, 1-(3-chloroallyl)-3,5,7-triaza-1-azoniaadamantane chloride]
SI (synergy index) ([1]; E. coli 8739, M9GY, 24 hours): 1.00
SI ([1]; E. coli 8739 - M9GY, 72 hours, BBIT with Quaternium-15): 1.00
MIC ([1]; ATCC8739, 24 h, read-out: Qb (concentration of second component producing the end point, MIC)): 50 µg/mL
SI (synergy index) [2, 4]: 1.00
SI ([2]; C. albicans 10231 - PDB, 24 hours, BBIT with Quaternium-15): 1.00
MIC ([2]; ATCC10231, 24 h, read-out: Qb (concentration of second component producing the end point, MIC)): 500 µg/mL
SI (synergy index) ([3]; A. niger 16404, PDB, 3 days): 1.00
SI ([3]; A. niger 16404 - PDB, 4 days, BBIT with Quaternium-15): 1.00
MIC ([3]; ATCC16404, 72 h, read-out: Qb (concentration of second component producing the end point, MIC)): 3000 µg/mL

O=[N+]([O-])C(Br)(CO)CO [BNPD, 2-bromo-2-nitro-propane-1,3-diol]
Qb (Second Component B) [1, 7]: 8
SI (synergy index) [1, 7]: 1.00
MIC ([1]; ATCC8739, E. coli 8739, M9GY, 48 hours, 30° C., read-out: MIC of the component acting alone (QA / QB)): 10 µg/mL
Qb (Second Component B) [2, 8]: 1000
SI (synergy index) [2, 8]: 1.00
MIC ([2]; ATCC10231, C. albicans 10231, PDB, 48 hours, 25° C., read-out: MIC of the component acting alone (QA / QB)): 2000 µg/mL
Qb (Second Component B) [3, 9]: 2000
SI (synergy index) [3, 9]: 1.00
MIC ([3]; ATCC16404, 168 h, A. niger 16404, PDB, 7 days, 25° C., read-out: MIC of the component acting alone (QA / QB)): 2000 µg/mL

CC(=O)C1C(=O)C=C(C)OC1=O (stereo not drawn) [dehydroacetic acid, sodium salt]
SI ([1]; E. coli 8739 - M9GY, 24 hours, BBIT with SDHA): 1.00
SI ([2]; C. albicans 10231 - PDB, 24 hours, BBIT with SDHA): 1.00
SI ([3]; A. niger 16404 - PDB, 7 days, BBIT with SDHA): 1.00

O=C([O-])CC(O)(CC(=O)[O-])C(=O)[O-].[Na+].[Na+].[Na+] [Sodium citrate]
Qb (Second Component B) [1]: 20000
Qb (concentration of second component producing the end point, MIC) [1]: 20000 ppm
Qb (Second Component B) [2]: 10000
Qb (concentration of second component producing the end point, MIC) [2]: 10000 ppm
Qb (Second Component B) [3]: 10000
Qb (concentration of second component producing the end point, MIC) [3]: 10000 ppm

O=c1[nH]sc2ccccc12 [Benzisothiazolinone, 1,2-benzisothiazolin-3-one]
Qb (Second Component B) [1, 10]: 20
SI (synergy index) [1, 10]: 1.00
MIC of the component acting alone (QA / QB) ([1]; E. coli 8739, M9GY, 72 hours, 30° C.): 8 ppm
Qb (Second Component B) [2, 11]: 30
SI (synergy index) [2, 11]: 1.00
MIC of the component acting alone (QA / QB) ([2]; C. albicans 10231, PDB, 48 hours, 25° C.): 30 ppm
MIC of the component acting alone (QA / QB) ([3]; A. niger 16404, PDB, 7 days, 25° C.): 100 ppm
Qb (Second Component B) [3, 12]: 300
SI (synergy index) [3, 12]: 1.00

CC1(C)C(=O)N(CO)C(=O)N1CO [DMDM Hydantoin, 1,3-dimethylol-5,5-dimethylhydantoin]
Qb (Second Component B) [1, 13]: 50
SI (synergy index) [1, 13]: 1.00
SI ([1]; E. coli 8739 - M9GY, 72 hours, BBIT + DMDMH): 1.00
Qb (Second Component B = DMDMH) ([1]; E. coli 8739 - M9GY, 72 hours, DMDMH alone (Qa 0) or in mixture with BBIT): 200
Qb (Second Component B) [2, 14]: 3000
SI (synergy index) [2, 14]: 1.00
SI ([2]; C. albicans 10231 - PDB, 24 hours, BBIT + DMDMH): 1.00
Qb (Second Component B = DMDMH) ([2]; C. albicans 10231 - PDB, 24 hours, DMDMH alone (Qa 0) or in mixture with BBIT): 3000
SI ([3]; A. niger 16404 - PDB, 7 days, BBIT + DMDMH): 1.00
Qb (Second Component B = DMDMH) ([3]; A. niger 16404 - PDB, 7 days, DMDMH alone (Qa 0) or in mixture with BBIT): 1000
Qb (Second Component B) [3, 15]: 1000
SI (synergy index) [3, 15]: 1.00

cocamidopropyl PG-dimonium chloride phosphate
SI (synergy index) ([1]; E. coli 8739, M9GY, 48 hours): 1.00
Qb (concentration of second component producing the end point, MIC) [1, 16]: 100 ppm
SI ([1]; E. coli 8739 - M9GY, 72 hours, BBIT with Phospholipid PTC): 1.00
SI (synergy index) [2, 4]: 1.00
Qb (concentration of second component producing the end point, MIC) [2, 5]: 1000 ppm
SI ([2]; C. albicans 10231 - PDB, 24 hours, BBIT with Phospholipid PTC): 1.00
SI (synergy index) ([3]; A. niger 16404, PDB, 4 days): 1.00
Qb (concentration of second component producing the end point, MIC) ([3]; A. niger 16404, PDB, 4 days, alone where Qa = 0, otherwise in the mixture): 1000 ppm
SI ([3]; A. niger 16404 - PDB, 3 days, BBIT with Phospholipid PTC): 1.00

linoleamidopropyl PG-dimonium chloride phosphate
SI (synergy index) ([1]; E. coli 8739, M9GY, 48 hours): 1.00
Qb (concentration of second component producing the end point, MIC) [1, 16]: 500 ppm
SI ([1]; E. coli 8739 - M9GY, 48 hours, BBIT with Phospholipid EFA): 1.00
SI (synergy index) [2, 4]: 1.00
Qb (concentration of second component producing the end point, MIC) [2, 5]: 1000 ppm
SI ([2]; C. albicans 10231 - PDB, 24 hours, BBIT with Phospholipid EFA): 1.00
SI (synergy index) ([3]; A. niger 16404, PDB, 3 days): 1.00
Qb (concentration of second component producing the end point, MIC) [3, 6]: 2000 ppm
SI ([3]; A. niger 16404 - PDB, 4 days, BBIT with Phospholipid EFA): 1.00
